Columns and labels:
Adipocytes (3T3-L1) = assay: Fatty acid oxidation by 3H-palmitate in 3T3-L1 adipocytes; type: cell-based; settings: 4 hours, low (5 mM) glucose, resveratrol 200 nM, HMB 5 uM, leucine 0.5 mM
Experimental: High glucose medium reduced fatty acid oxidation by 46% (p<0.05).
Fatty acid oxidation was measured using ^3H-labeled palmitate oxidation, with the ^3H label trapped as water as a result of the fat oxidation. The ^3H was then measured via scintillation counter.

myotubes (C2C12) = assay: Fatty acid oxidation, palmitate-induced O2 consumption (Seahorse XF24), myotubes; type: cell-based; settings: 24 hours treatment, leucine 0.5 mM, HMB 5 μM, resveratrol 200 nM, partner at its no-effect concentration, % change from control
UCP1 = UCP1 mRNA expression in subcutaneous adipose tissue of diet-induced obese mice; type: in vivo, c57/BL6 mice; settings: six weeks, resveratrol 12.5 mg/kg diet, leucine 2.42%
Experimental: Expression of 18S, Sirt1, Sirt3, PGC1-α, cytochrome c oxidase subunit VIIc1 (COX 7), mitochondrial NADH dehydrogenase, nuclear respiratory factor 1 (NRF1), uncoupling protein (UCP2 (adipocyte)/UCP3 (myocyte), p53, AMPK, Akt/PKB, and GLUT4 is measured via quantitative real-time PCR using an ABI 7300 Real-Time PCR system (Applied Biosystems, Branchburg, N.J.) with a TaqMan® core reagent kit. All primers and probe sets can be obtained from Applied Biosystems TaqMan® Assays-on-Demand and utilized accordingly to manufacturer's instructions. Pooled RNA from each cell type are serial-diluted in the range of 0.0156-50 ng and were used to establish a standard curve; total RNA for each unknown sample is also diluted in this range. […] Expression of each gene of interest is then normalized using the corresponding 18S quantitation.
Six week old male c57/BL6 mice were fed a high-fat diet with fat increased to 45% of energy (Research Diets D12451) for 6 weeks to induce obesity. […] RNA was extracted from the subcutaneous adipose tissue, and gene expression was evaluated according to methods described in Example 4. […] Plasma levels of irisin were also evaluated, the results of which are described in Example 8 and illustrated in FIG. 70. […] Protein expression may also be determined by Western blot or ELISA, as in Example 8. […]

SIRT1 [1] = biological target: T1, SIRT1 (Mus musculus, UniProt Q923E4); assay: Sirt1 activity of treated cells (SIRT1 Fluorimetric Drug Discovery Kit), Example 5; type: cell-based; set-up: endogenous in cells; host or cells: 3T3-L1 adipocytes and C2C12 myotubes; settings: leucine 0.5 mM, HMB 5 μM, resveratrol 200 nM; summary in Example 5, system not stated
T1 sequence (Q923E4 1-737): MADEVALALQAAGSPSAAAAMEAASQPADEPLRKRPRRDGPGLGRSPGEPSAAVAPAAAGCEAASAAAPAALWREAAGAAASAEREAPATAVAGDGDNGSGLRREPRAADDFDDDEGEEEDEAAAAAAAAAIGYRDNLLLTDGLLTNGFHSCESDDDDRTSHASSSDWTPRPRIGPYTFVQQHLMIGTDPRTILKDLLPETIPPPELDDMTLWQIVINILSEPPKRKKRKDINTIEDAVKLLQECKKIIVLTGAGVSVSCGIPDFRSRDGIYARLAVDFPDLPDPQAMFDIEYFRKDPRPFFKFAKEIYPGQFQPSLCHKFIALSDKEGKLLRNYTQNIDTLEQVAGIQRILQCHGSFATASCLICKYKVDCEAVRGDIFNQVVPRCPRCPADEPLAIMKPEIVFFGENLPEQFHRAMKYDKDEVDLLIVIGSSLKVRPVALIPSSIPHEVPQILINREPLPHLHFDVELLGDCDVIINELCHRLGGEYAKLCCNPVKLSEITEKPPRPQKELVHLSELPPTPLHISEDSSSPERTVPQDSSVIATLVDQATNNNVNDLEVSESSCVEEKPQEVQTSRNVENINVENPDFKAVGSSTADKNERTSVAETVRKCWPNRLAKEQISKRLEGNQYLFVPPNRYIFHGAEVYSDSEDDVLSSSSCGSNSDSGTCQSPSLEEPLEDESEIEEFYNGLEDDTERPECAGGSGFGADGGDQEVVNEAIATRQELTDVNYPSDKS
Experimental: All compounds were tested for potential to independently or synergistically modulate sirtuin signaling either by direct stimulation or indirect via upstream signaling via AMPK. A key outcome of Sirt1 signaling is stimulation of PGC1-α and subsequent stimulation of mitochondrial biogenesis and fatty acid oxidation. Accordingly, fatty acid oxidation, measured as palmitate-induced oxygen consumption as described below, was utilized as a sensitive first level of screening for aerobic mitochondrial metabolism. A dose-response curve for fatty acid oxidation was established for each compound studied, and a “sub-therapeutic dose” was defined as the highest dose that exerted no effect in this system. […] Following assessment of fatty acid oxidation, Sirt1 activity, AMPK activity, mitochondrial biogenesis and glucose utilization (measured as glucose-induced extracellular acidification in the absence of fatty acids in the media) were assessed for lead combinations and appropriate controls. SIRT1 activity was measured by using the SIRT1 Fluorimetric Drug Discovery Kit (BML-AK555, ENZO Life Sciences International, Inc. PA, USA). […]

SIRT1 [2] = biological target: T1, SIRT1; assay: Adipose tissue Sirt1 activity in diet-induced obese mice; type: in vivo, c57/BL6 mice; set-up: from tissue; host or cells: adipose tissue of diet-induced obese c57/BL6 mice; settings: 6 weeks

## Oc1ccc(/C=C/c2cc(O)cc(O)c2)cc1 [resveratrol, 3,5,4′-Trihydroxy-trans-stilbene]
Adipocytes (3T3-L1)
  increase in fatty acid oxidation, low glucose: no independent effect
Myotubes (C2C12)
  increase in myotube fatty acid oxidation: neither component exerted an independent effect
UCP1
  increase in UCP1 expression in white subcutaneous adipose tissue: no independent effect
SIRT1 [1]
  stimulation of Sirt1 activity: no effect
SIRT1 [2]; high dose resveratrol
  adipose tissue Sirt1 activity: non-significant trend towards an increase
SIRT1 [2]; low dose of resveratrol, HMB, leucine diets
  adipose tissue Sirt1 activity: Neither resveratrol nor HMB exerted significant independent effects
